Experimental data taken from EP4800015A1, “AZABICYCLO DERIVATIVE AND PREPARATION METHOD THEREFOR, AND USE” (Zhejiang Hisun Pharmaceutical Co., Ltd., priority 2023, dated 2025).

What was measured:
[1] = test system: SW48 cells; test: Inhibition of SW48 cell proliferation (CellTiter-Glo); format: cell-based; details: Homo sapiens; SW48 cells (MSI-H), 120 hours
Method: The following method was used to determine the effect of the compounds of the present disclosure on SW48 cell proliferation. SW48 cells (MSI-H cells) were purchased from American ATCC cell bank and cultured in Leibovitz's L-15 medium (Gibco, catalog No. 11415064) containing 10% fetal bovine serum, 100 U penicillin, and 100 µg/mL streptomycin. Cell viability was determined by CellTiter-Glo® Luminescent Cell Viability Assay kit (Promega, catalog No. G7573).
The experiment was performed according to the steps of the kit manual, which is briefly described as follows: test compounds were first dissolved in DMSO to prepare 10 mM stock solutions, and then diluted with medium to prepare test samples, with final compound concentrations ranging from 10000 nM to 1.52 nM. Cells in logarithmic growth phase were seeded into 96-well cell culture plates at a density of 500 cells per well and cultured overnight at 37 °C in an air incubator, then test compounds were added and cultivation continued for 120 hours. After the cultivation was completed, 40 µL of CellTiter-Glo detection reagent was added to each well, shaken for 5 minutes, and then left to stand for 10 minutes. Luminescence values of each well were read on a microplate reader using Luminescence mode. The percentage inhibition at each concentration point was calculated by comparison with the control group (0.1% DMSO), and then IC50 values for the compounds for inhibition of cell proliferation were obtained using nonlinear regression analysis of compound concentration logarithm versus inhibition rate in GraphPad Prism 9 software, as shown in Table 2.
The IC50 value results of the compounds of the present disclosure are represented by A, wherein "A" indicates 1 nM < IC50 ≤ 100 nM. Table 2 IC50 data for inhibition of SW48 cell proliferation by the compounds of the present disclosure

[2] = target: T1, recombinant human WRN (Homo sapiens, UniProt Q14191); test: Inhibition of WRN enzyme activity (ATPase), ADP-Glo Kinase Assay; format: biochemical; details: WRN protein 5 nM, Flap 0.1 nM, ATP 30 µM; read-out: IC50
T1 construct: purchased BPS 101264
Summary of the method: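 Recombinant human WRN (5 nM) was preincubated with compound (1000–0.004 nM) for 15 min at room temperature. Flap26 5'-flap DNA (0.1 nM) and 30 µM ATP were then added for 10 min in Tris pH 7.5, MgCl2, NaCl, BSA, Pluronic buffer. ADP was detected by ADP-Glo luminescence, and IC50 was obtained by nonlinear regression versus a 0.1% DMSO control.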

[3] = test system: RL95-2 cells; test: Inhibition of RL95-2 cell proliferation (CellTiter-Glo); format: cell-based; details: Homo sapiens; RL95-2 cells (MSI-H), 120 hours
Summary of the method: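 RL95-2 (MSI-H) cells, 500/well in DMEM/F12 with 10% FBS, adhered overnight, then treated 120 h at 37 °C, 5% CO2 with compound at final 1.52-10000 nM. Viability by CellTiter-Glo luminescence. Inhibition relative to 0.1% DMSO control; IC50 from nonlinear regression of log concentration versus inhibition.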

T1 sequence (Q14191 whole entry): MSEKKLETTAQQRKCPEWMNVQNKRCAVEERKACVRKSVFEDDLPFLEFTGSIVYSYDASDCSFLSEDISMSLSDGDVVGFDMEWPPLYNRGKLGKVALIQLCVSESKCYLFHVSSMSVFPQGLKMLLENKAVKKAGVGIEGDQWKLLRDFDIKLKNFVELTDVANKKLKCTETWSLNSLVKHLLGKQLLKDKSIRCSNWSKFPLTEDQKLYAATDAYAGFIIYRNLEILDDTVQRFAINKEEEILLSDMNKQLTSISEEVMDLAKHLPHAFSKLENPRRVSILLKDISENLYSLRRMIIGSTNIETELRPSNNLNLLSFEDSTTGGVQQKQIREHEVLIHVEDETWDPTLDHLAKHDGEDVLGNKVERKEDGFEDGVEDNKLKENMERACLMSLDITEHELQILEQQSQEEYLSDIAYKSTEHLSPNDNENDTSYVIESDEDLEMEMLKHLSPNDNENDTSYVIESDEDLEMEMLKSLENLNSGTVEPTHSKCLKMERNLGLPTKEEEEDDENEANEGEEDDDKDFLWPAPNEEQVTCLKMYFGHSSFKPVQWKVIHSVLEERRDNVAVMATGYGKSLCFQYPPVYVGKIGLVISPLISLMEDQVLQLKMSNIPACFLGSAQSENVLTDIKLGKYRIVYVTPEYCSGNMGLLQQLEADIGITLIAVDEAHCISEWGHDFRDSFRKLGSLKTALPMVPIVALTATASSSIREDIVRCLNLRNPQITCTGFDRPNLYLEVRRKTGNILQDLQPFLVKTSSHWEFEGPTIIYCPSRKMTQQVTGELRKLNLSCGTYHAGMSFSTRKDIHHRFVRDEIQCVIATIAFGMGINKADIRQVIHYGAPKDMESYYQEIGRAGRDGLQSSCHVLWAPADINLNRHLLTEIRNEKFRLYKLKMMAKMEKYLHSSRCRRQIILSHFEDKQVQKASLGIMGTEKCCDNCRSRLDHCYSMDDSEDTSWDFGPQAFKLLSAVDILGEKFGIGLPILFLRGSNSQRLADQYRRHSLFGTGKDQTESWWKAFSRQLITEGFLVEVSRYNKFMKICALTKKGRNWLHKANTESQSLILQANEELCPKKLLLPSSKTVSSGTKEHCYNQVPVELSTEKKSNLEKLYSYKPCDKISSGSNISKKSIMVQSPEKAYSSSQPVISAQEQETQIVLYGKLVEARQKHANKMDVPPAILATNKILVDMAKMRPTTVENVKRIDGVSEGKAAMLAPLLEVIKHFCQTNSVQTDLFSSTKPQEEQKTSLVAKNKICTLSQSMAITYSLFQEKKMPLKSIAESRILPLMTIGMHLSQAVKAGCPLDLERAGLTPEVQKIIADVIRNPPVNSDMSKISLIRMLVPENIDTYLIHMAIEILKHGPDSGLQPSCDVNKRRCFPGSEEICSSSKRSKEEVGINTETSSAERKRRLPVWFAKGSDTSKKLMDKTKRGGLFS

CCc1c(N2CCN(C(=O)c3ncnc(C)c3O)CC2)c(=O)n2nc(-c3ccc4c(c3)CCO4)nc2n1CC(=O)Nc1ccc(S(F)(F)(F)(F)F)cc1 [Example 86, 2-(2-(2,3-dihydrobenzofuran-5-yl)-5-ethyl-6-(4-(5-hydroxy-6-methylpyrimidine-4-carbonyl)piperazin-1-yl)-7-oxo-[1,2,4]triazolo[1,5-a]pyrimidin-4(7H)-yl)-N-(4-(pentafluoro-λ^6-sulfaneyl)phenyl)acetamide]
IC50 [1]: 1 to 100 nM | IC50 [2]: 1 to 100 nM | IC50 [3]: 1 to 100 nM

CCc1c(N2CCN(C(=O)c3ncnc(C)c3O)CC2)c(=O)n2nc(-c3ccc4c(c3)CCO4)nc2n1CC(=O)Nc1ccc(S(F)(F)(F)(F)F)cc1C [Example 88, 2-(2-(2,3-dihydrobenzofuran-5-yl)-5-ethyl-6-(4-(5-hydroxy-6-methylpyrimidine-4-carbonyl)piperazin-1-yl)-7-oxo-[1,2,4]triazolo[1,5-a]pyrimidin-4(7H)-yl)-N-(2-methyl-4-(pentafluoro-λ^6-sulfaneyl)phenyl)acetamide]
IC50 [1]: 1 to 100 nM | IC50 [2]: 1 to 100 nM | IC50 [3]: 1 to 100 nM

CCc1c(N2CCN(C(=O)c3ncnc(C)c3O)CC2)c(=O)n2nc(-c3cc4ccccc4s3)nc2n1CC(=O)Nc1ccc(S(F)(F)(F)(F)F)cc1 [Example 98, 2-(2-(benzo[b]thiophen-2-yl)-5-ethyl-6-(4-(5-hydroxy-6-methylpyrimidine-4-carbonyl)piperazin-1-yl)-7-oxo-[1,2,4]triazolo[1,5-a]pyrimidin-4(7H)-yl)-N-(4-(pentafluoro-λ^6-sulfaneyl)phenyl)acet amide]
IC50 [1]: 1 to 100 nM | IC50 [2]: 1 to 100 nM | IC50 [3]: 1 to 100 nM

CCc1c(N2CCN(C(=O)c3ncnc(C)c3O)CC2)c(=O)n2nc(-c3ccc4nn(C)cc4c3)nc2n1CC(=O)Nc1ccc(C(F)(F)F)cc1Cl [Example 99, N-(2-Chloro-4-(trifluoromethyl)phenyl)-2-(5-ethyl-6-(4-(5-hydroxy-6-methylpyrimidine-4-carbonyl)piperazin-1-yl)-2-(2-methyl-2H-indazol-5-yl)-7-oxo-[1,2,4]triazolo[1,5-a]pyrimidin-4(7H)-yl)acetamide]
IC50 [1]: 1 to 100 nM | IC50 [2]: 1 to 100 nM | IC50 [3]: 1 to 100 nM

CCc1c(N2CCN(C(=O)c3ncnc(C)c3O)CC2)c(=O)n2nc(-c3cnc4[nH]ccc4c3)nc2n1CC(=O)Nc1ccc(C(F)(F)F)cc1Cl [Example 101, N-(2-chloro-4-(trifluoromethyl)phenyl)-2-(5-ethyl-6-(4-(5-hydroxy-6-methylpyrimidine-4-carbonyl)piperazin-1-yl)-7-oxo-2-(1H-pyrrolo[2,3-b]pyridin-5-yl)-[1,2,4]triazolo[1,5-a]pyrimidin-4(7H) -yl)acetamide]
IC50 [1]: 1 to 100 nM | IC50 [2]: < 1 nM | IC50 [3]: 1 to 100 nM

CCc1c(N2CCN(C(=O)c3ncnc(C)c3O)CC2)c(=O)n2nc(-c3ccc4[nH]ccc4c3)nc2n1CC(=O)Nc1ccc(C(F)(F)F)cc1Cl [Example 102, N-(2-chloro-4-(trifluoromethyl)phenyl)-2-(5-ethyl-6-(4-(5-hydroxy-6-methylpyrimidine-4-carbonyl)piperazin-1-yl)-2-(1H-indol-5-yl)-7-oxo-[1,2,4]triazolo[1,5-a]pyrimidin-4(7H)-yl)acetamide]
IC50 [1]: 1 to 100 nM | IC50 [2]: 1 to 100 nM | IC50 [3]: 1 to 100 nM

CCc1c(N2CCN(C(=O)c3ncnc(C)c3O)CC2)c(=O)n2nc(-c3ccc4n[nH]cc4c3)nc2n1CC(=O)Nc1ccc(C(F)(F)F)cc1Cl [Example 112, N-(2-chloro-4-(trifluoromethyl)phenyl)-2-(5-ethyl-6-(4-(5-hydroxy-6-methylpyrimidine-4-carbonyl)piperazin-1-yl)-2-(1H-indazol-5-yl)-7-oxo-[1,2,4]triazolo[1,5-a]pyrimidin-4(7H)-yl)acetamide]
IC50 [1]: 1 to 100 nM | IC50 [2]: 1 to 100 nM | IC50 [3]: 1 to 100 nM

CCc1c(N2CCN(C(=O)c3ncnc(C)c3O)CC2)c(=O)n2nc(-c3ccc4c(cnn4C)c3)nc2n1CC(=O)Nc1ccc(C(F)(F)F)cc1Cl [Example 113, N-(2-chloro-4-(trifluoromethyl)phenyl)-2-(5-ethyl-6-(4-(5-hydroxy-6-methylpyrimidine-4-carbonyl)piperazin-1-yl)-2-(1-methyl-1H-indazol-5-yl)-7-oxo-[1,2,4]triazolo[1,5-a]pyrimidin-4(7H)-yl) acetamide]
IC50 [1]: 1 to 100 nM | IC50 [2]: 1 to 100 nM | IC50 [3]: 1 to 100 nM

CCc1c(N2CCN(C(=O)c3ncnc(C)c3O)CC2)c(=O)n2nc(C3=CC4CCC3C4)nc2n1CC(=O)Nc1ccc(S(F)(F)(F)(F)F)cc1 (stereo not drawn) [Example 118, 2-(2-(bicyclo[2.2.1]hept-2-en-2-yl)-5-ethyl-6-(4-(5-hydroxy-6-methylpyrimidine-4-carbonyl)piperazin-1-yl)-7-oxo-[1,2,4]triazolo[1,5-a]pyrimidin-4(7H)-yl)-N-(4-(pentafluoro-λ^6-sulfaneyl)phenyl)acetamide]
IC50 [1]: 1 to 100 nM | IC50 [2]: 1 to 100 nM | IC50 [3]: 1 to 100 nM

CCc1c(N2CCN(C(=O)c3ncnc(C)c3O)CC2)c(=O)n2nc(C3=CCC4(CC3)CC4)nc2n1CC(=O)Nc1ccc(S(F)(F)(F)(F)F)cc1 [Example 120, 2-(5-ethyl-6-(4-(5-hydroxy-6-methylpyrimidine-4-carbonyl)piperazin-1-yl)-7-oxo-2-(spiro[2.5]oct-5-en-6-yl)-[1,2,4]triazolo[1,5-a]pyrimidin-4(7H)-yl)-N-(4-(pentafluoro-λ6-sulfaneyl)phenyl)ace tamide]
IC50 [1]: 1 to 100 nM | IC50 [2]: 1 to 100 nM | IC50 [3]: 1 to 100 nM

CCc1c(N2CCN(C(=O)c3ncccc3O)CC2)c(=O)n2nc(C3=CC4CC(O)CC4C3)nc2n1CC(=O)Nc1ccc(C(F)(F)F)cc1Cl (stereo not drawn) [Example 121, N-(2-chloro-4-(trifluoromethyl)phenyl)-2-(5-ethyl-2-(5-hydroxy-1,3a,4,5,6,6a-hexahydropentalen-2-yl)-6-(4-(3-hydroxypicolinoyl)piperazin-1-yl)-7-oxo-[1,2,4]triazolo[1,5-a]pyrimidin-4(7H)-yl) acetamide]
IC50 [1]: 1 to 100 nM | IC50 [2]: 1 to 100 nM | IC50 [3]: 1 to 100 nM

CCc1c(N2CCN(C(=O)c3ncnc(C)c3O)CC2)c(=O)n2nc(-c3ccc4cc[nH]c4c3)nc2n1CC(=O)Nc1ccc(C(F)(F)F)cc1Cl [Example 123, N-(2-chloro-4-(trifluoromethyl)phenyl)-2-(5-ethyl-6-(4-(5-hydroxy-6-methylpyrimidine-4-carbonyl)piperazin-1-yl)-2-(1H-indo1-6-yl)-7-oxo-[1,2,4]triazolo[1,5-a]pyrimidin-4(7H)-yl)acetamide]
IC50 [1]: 1 to 100 nM | IC50 [2]: 1 to 100 nM | IC50 [3]: 1 to 100 nM

CCc1c(N2CCN(C(=O)c3ncnc(C)c3O)CC2)c(=O)n2nc(-c3ccc4nccn4c3)nc2n1CC(=O)Nc1ccc(C(F)(F)F)cc1Cl [Example 126, N-(2-chloro-4-(trifluoromethyl)phenyl)-2-(5-ethyl-6-(4-(5-hydroxy-6-methylpyrimidine-4-carbonyl)piperazin-1-yl)-2-(imidazo[1,2-a]pyridin-6-yl)-7-oxo-[1,2,4]triazolo[1,5-a]pyrimidin-4(7H)-yl)acetamide]
IC50 [1]: 1 to 100 nM | IC50 [2]: 1 to 100 nM | IC50 [3]: 1 to 100 nM

CCc1c(N2CCN(C(=O)c3ncnc(C)c3O)CC2)c(=O)n2nc(-c3ccc4c(c3)COC4)nc2n1CC(=O)Nc1ccc(C(F)(F)F)cc1Cl [Example 129, N-(2-chloro-4-(trifluoromethyl)phenyl)-2-(2-(1,3-dihydroisobenzofuran-5-yl)-5-ethyl-6-(4-(5-hydroxy-6-methylpyrimidine-4-carbonyl)piperazin-1-yl)-7-oxo-[1,2,4]triazolo[1,5-a]pyrimidin-4(7 H)-yl)acetamide]
IC50 [1]: 1 to 100 nM | IC50 [2]: 1 to 100 nM | IC50 [3]: 1 to 100 nM

CCc1c(N2CCN(C(=O)c3ncnc(C)c3O)CC2)c(=O)n2nc(-c3ccc4c(c3)CCCO4)nc2n1CC(=O)Nc1ccc(C(F)(F)F)cc1Cl [Example 130, N-(2-chloro-4-(trifluoromethyl)phenyl)-2-(2-(chroman-6-yl)-5-ethyl-6-(4-(5-hydroxy-6-methylpyrimidine-4-carbonyl)piperazin-1-yl)-7-oxo-[1,2,4]triazolo[1,5-a]pyrimidin-4(7H)-yl)acetamide]
IC50 [1]: 1 to 100 nM | IC50 [2]: 1 to 100 nM | IC50 [3]: 1 to 100 nM
